The values below come from ChEMBL document CHEMBL1800029, “N-aryl-benzimidazolones as novel small molecule HSP90 inhibitors” (Bioorg Med Chem Lett, 2010).

The structures appear in SMILES notation.

Test [1] has as its target T1, Heat shock protein HSP 90-alpha (Homo sapiens, UniProt P07900).
Description: Binding affinity to Hsp90alpha N-terminal ATPase domain by TR-FRET assay based competitive binding assay
Test [2] addresses T1, Heat shock protein HSP 90-alpha. This is another data set of the same source.
Description: Inhibition of Hsp90alpha ATPase activity by malachite green ATP-ase assay
The target is the same in test [3]. Briefly: Inhibition of Hsp90alpha in human SKBR3 cells assessed as up-regulation of HSP70 protein by Western blot analysis. Format: cell-based, SK-BR-3.
Test [4] shares this target. Kind of test: Inhibition of Hsp90alpha in human SKBR3 cells assessed as ErbB2 degradation by Western blot analysis. Format: cell-based, SK-BR-3.
The next test concerns SK-BR-3. Briefly: Cytotoxicity against human SKBR3 cells. It is filed as functional, cell-based.
Test [5] deals with T1, Heat shock protein HSP 90-alpha. Kind of test: Inhibition of Hsp90alpha in human H1299 cells assessed as HIF-1alpha degradation by luciferase reporter assay. Format: cell-based. (A reporter such as luciferase makes a cellular process visible.)

As a reminder, the IC50 is the point on the concentration scale where inhibition reaches its midpoint. A high value points to lower potency. As to `CC(=O)NCc1ccc2c(c1)[nH]c(=O)n2-c1cc(Cl)c(O)cc1O`, the IC50 in test [1] came to 40 nM; in test [2] it was 24800 nM.
Regarding `O=C(NCc1ccc2c(c1)[nH]c(=O)n2-c1cc(Cl)c(O)cc1O)c1ccccc1`, the IC50 in test [1] came out at 72 nM; in test [2], 22900 nM.
For `CS(=O)(=O)NCc1ccc2c(c1)[nH]c(=O)n2-c1cc(Cl)c(O)cc1O` the same measures were 50 nM and 25200 nM.
In the case of `CCNC(=O)NCc1ccc2c(c1)[nH]c(=O)n2-c1cc(Cl)c(O)cc1O`, the results for the IC50 in test [1] and in test [2] were 33 nM and 14200 nM, respectively.
`O=C(NCc1ccc2c(c1)[nH]c(=O)n2-c1cc(Cl)c(O)cc1O)Nc1ccccc1`: the IC50 in test [1] amounted to 60 nM; in test [2], 15400 nM.
`O=c1[nH]c2cc(CNS(=O)(=O)c3ccccc3)ccc2n1-c1cc(Cl)c(O)cc1O`: the IC50 came to 27 nM in test [1] and 3420 nM in test [2].
Broadly, the EC50 is the concentration needed to bring the measured effect to its halfway point. Turning to `O=c1[nH]c2cc(CNS(=O)(=O)c3cccc4ccccc34)ccc2n1-c1cc(Cl)c(O)cc1O`, the EC50 in test [3] is 60 nM; in test [4], < 100 nM; in the test with SK-BR-3, 12 nM; in test [5], 190 nM. Also, in test [2], the IC50 came out at 550 nM.
For the compound `O=c1[nH]c2cc(CNS(=O)(=O)c3ccc4ccccc4c3)ccc2n1-c1cc(Cl)c(O)cc1O`, the IC50 in test [1] was 47 nM; in test [2], 1140 nM.
For the compound `O=c1[nH]c2ccccc2n1-c1cc(C(F)(F)F)ccc1O`, the IC50 in test [1] stood at 2320 nM; in test [2] it was 127000 nM.
Regarding `O=c1[nH]c2ccccc2n1-c1ccc(O)cc1O`, in test [2], the half-maximal inhibitory concentration (IC50) was found to be 85000 nM.
Turning to `O=c1[nH]c2ccccc2n1-c1cc(O)ccc1O`, the IC50 stood at 34900 nM in test [1] and 200000 nM in test [2].
Consider `O=c1[nH]c2ccccc2n1-c1cc(Cl)c(O)cc1O`, for which the IC50 turned out to be 54 nM in test [1] and 15200 nM in test [2].
For the compound `O=c1[nH]c2ccccc2n1-c1cc(O)c(Cl)cc1O`, the IC50 is 2530 nM in test [1] and 200000 nM in test [2].
Take `CCNC(=O)c1n[nH]c(-c2cc(Cl)c(O)cc2O)c1-c1ccc(OC)cc1`: the EC50 in the test with SK-BR-3 came to 250 nM.
Consider `O=c1[nH]c2cc(C(F)(F)F)ccc2n1-c1cc(C(F)(F)F)ccc1O`, for which the IC50 amounted to 3320 nM in test [1] and 81000 nM in test [2].
In the case of `C=CCNC1=C2C[C@@H](C)C[C@H](OC)[C@H](O)[C@@H](C)/C=C(\C)[C@H](OC(N)=O)[C@@H](OC)/C=C\C=C(/C)C(=O)NC(=CC1=O)C2=O` [TANESPIMYCIN], it took 25 nM to reach a half-maximal effect in the test with SK-BR-3 (EC50).
